System: SW1271 complex spheroids with HUVEC/MSC, growth, % test/control
Assay: Anticancer human tumor SW1271 cell line growth inhibition [AhR];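 further: spheroids exposed to agents for 7 days before readout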
Settings: for IC50: curve of first compound; for viability, T/C: stronger effect = lower value
Method in brief: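 Agents were dosed in half-log steps down from roughly clinical Cmax, or from 10 microM where Cmax was unknown, alone and with AhR antagonists. Read-out: percent test/control growth of tumor spheroids containing HUVEC and MSC stromal cells.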

[1] = second compound 0.1 µM, first compound 0.0316 µM
[2] = second compound 0.1 µM, first compound 0.1 µM
[3] = second compound 0.1 µM, first compound 0.316 µM
[4] = second compound 0.1 µM, first compound 1 µM
[5] = second compound 0.316 µM, first compound 0.0316 µM
[6] = second compound 0.316 µM, first compound 0.1 µM
[7] = second compound 0.316 µM, first compound 0.316 µM
[8] = second compound 0.316 µM, first compound 1 µM
[9] = second compound 1 µM, first compound 0.0316 µM
[10] = second compound 1 µM, first compound 0.1 µM
[11] = second compound 1 µM, first compound 0.316 µM
[12] = second compound 1 µM, first compound 1 µM
[13] = second compound 3.16 µM, first compound 0.0316 µM
[14] = second compound 3.16 µM, first compound 0.1 µM
[15] = second compound 3.16 µM, first compound 0.316 µM
[16] = second compound 3.16 µM, first compound 1 µM
[17] = second compound 10 µM, first compound 0.0316 µM
[18] = second compound 10 µM, first compound 0.1 µM
[19] = second compound 10 µM, first compound 0.316 µM
[20] = second compound 10 µM, first compound 1 µM

SMILES	IC50 (second compound 0.1 µM) [nM]	IC50 (second compound 0.316 µM) [nM]	IC50 (second compound 1 µM) [nM]	IC50 (second compound 3.16 µM) [nM]	IC50 (second compound 10 µM) [nM]	viability, T/C [1] [%]	viability, T/C [2] [%]	viability, T/C [3] [%]	viability, T/C [4] [%]	viability, T/C [5] [%]	viability, T/C [6] [%]	viability, T/C [7] [%]	viability, T/C [8] [%]	viability, T/C [9] [%]	viability, T/C [10] [%]	viability, T/C [11] [%]	viability, T/C [12] [%]	viability, T/C [13] [%]	viability, T/C [14] [%]	viability, T/C [15] [%]	also measured
CC(C)c1c(-c2ccccc2)nc2c(C#N)c[nH]n2c1=O + Cc1ccccc1N=Nc1ccc(NC(=O)c2ccnn2C)c(C)c1	> 10000	> 10000	> 10000	> 10000	> 10000	99.6	85.9	94.9	78	102	110	112	107	90.5	97.6	91	113	93.3	88.3	130	viability, T/C (second compound 0.1 µM, first compound 3.16 µM): 102%; viability, T/C (second compound 0.1 µM, first compound 10 µM): 102%; viability, T/C (second compound 0.316 µM, first compound 3.16 µM): 85.3%; viability, T/C (second compound 0.316 µM, first compound 10 µM): 77.3%; viability, T/C (second compound 1 µM, first compound 3.16 µM): 107%; viability, T/C (second compound 1 µM, first compound 10 µM): 94.4%; viability, T/C [16]: 109%; viability, T/C (second compound 3.16 µM, first compound 3.16 µM): 119%; viability, T/C (second compound 3.16 µM, first compound 10 µM): 101%; viability, T/C [17]: 76.5%; viability, T/C [18]: 88.5%; viability, T/C [19]: 108%; viability, T/C [20]: 113%; viability, T/C (second compound 10 µM, first compound 3.16 µM): 88.2%; viability, T/C (second compound 10 µM, first compound 10 µM): 87.6%
CC1COCCN1c1cc(-c2ccnn2C)c2ccnc(-c3ccn[nH]3)c2n1 (stereo not given) + Cc1ccccc1N=Nc1ccc(NC(=O)c2ccnn2C)c(C)c1	683	> 1000	> 1000	> 1000	> 1000	88.5	72.7	61.6	44.6	92.7	81.2	74.8	49.2	106	83.6	85.3	49.6	85.8	57	63.5	viability, T/C (second compound 0.1 µM, first compound 0.00316 µM): 98.9%; viability, T/C (second compound 0.1 µM, first compound 0.01 µM): 97.4%; viability, T/C (second compound 0.316 µM, first compound 0.00316 µM): 102%; viability, T/C (second compound 0.316 µM, first compound 0.01 µM): 126%; viability, T/C (second compound 1 µM, first compound 0.00316 µM): 112%; viability, T/C (second compound 1 µM, first compound 0.01 µM): 96.9%; viability, T/C (second compound 3.16 µM, first compound 0.00316 µM): 100%; viability, T/C (second compound 3.16 µM, first compound 0.01 µM): 102%; viability, T/C [16]: 63%; viability, T/C (second compound 10 µM, first compound 0.00316 µM): 93.3%; viability, T/C (second compound 10 µM, first compound 0.01 µM): 95%; viability, T/C [17]: 99.9%; viability, T/C [18]: 72.3%; viability, T/C [19]: 55.1%; viability, T/C [20]: 58.2%

From PubChem BioAssay AID1919017 (Molecular Pharmacology Branch, DTP, NCI, 2023)
